Test results taken from ChEMBL document CHEMBL4483862, “Open-source discovery of chemical leads for next-generation chemoprotective antimalarials” (2018).
pIC50: −log10 of the molar value.

Tested on: Plasmodium berghei
Assay: Luciferase/luciferin-expressing antifolate-resistant parasites were used to infect a culture of HepG2 cells that were pre-incubated with compounds. Infected hepatocytes emit light due to the luciferase reaction. Assay results are presented as the percent inhibition of light emission compared to control. […]
Assay type: functional
Details: sporozoite; for IC90: read-out: LUCIFERASE INFECTION ASSAY - IC90

Row | Structure (SMILES) | IC90 | further results
1 | O=[N+]([O-])c1cc(/C=N/O)ccc1Sc1ccccc1 | > 12 µM | pIC50 (PBLUC_HILL_SLOPE 15.1, PBLUC_R_SQUARED 0.212, read-out: LUCIFERASE INFECTION ASSAY - IC50): < 4.92
2 | CC(C)C(=O)N1CCN(c2nc(CSc3ccccc3)nc3sc4c(c23)CCCC4)CC1 | > 10 µM | pIC50 (PBLUC_HILL_SLOPE 15.3, PBLUC_R_SQUARED 0.212, read-out: LUCIFERASE INFECTION ASSAY - IC50): 5.06
3 | Clc1ccc(Sc2ncnc3ccsc23)cc1 | 9.97 µM | pIC50 (PBLUC_HILL_SLOPE 15.3, PBLUC_R_SQUARED 0.133, read-out: LUCIFERASE INFECTION ASSAY - IC50): 5.06
4 | CC1=C(C(=O)OC2CCCCC2)C(c2ccccc2Br)CC(=O)N1 (stereo unspecified) | > 8.41 µM | pIC50 (PBLUC_HILL_SLOPE 15.2, PBLUC_R_SQUARED 0.697, read-out: LUCIFERASE INFECTION ASSAY - IC50): 5.12
5 | O=C(CSc1nnc(C2CC2)o1)NCCC1=CCCCC1 | 3.33 µM | pIC50 (PBLUC_HILL_SLOPE 15.1, PBLUC_R_SQUARED 0.587, read-out: LUCIFERASE INFECTION ASSAY - IC50): 5.54
6 | Cc1ccc2cc(Cn3cc(Br)ccc3=O)c(Cl)nc2c1C | 3.58 µM | pIC50 (PBLUC_HILL_SLOPE 15.2, PBLUC_R_SQUARED 0.445, read-out: LUCIFERASE INFECTION ASSAY - IC50): 5.51
7 | O=C(Nc1ccc(OC(F)(F)F)cc1)Nc1ccccc1SCC(O)Cn1ccc(C(F)(F)F)n1 (stereo unspecified) | > 6.34 µM | pIC50 (PBLUC_HILL_SLOPE 15.1, PBLUC_R_SQUARED 0.225, read-out: LUCIFERASE INFECTION ASSAY - IC50): 5.23
8 | Cc1cc(C2=NN/C(=N\C(C)(C)C)SC2)c(C)n1C(C)C | > 10 µM | pIC50 (PBLUC_HILL_SLOPE 15.1, PBLUC_R_SQUARED 0.242, read-out: LUCIFERASE INFECTION ASSAY - IC50): 5.04
9 | O=C1c2ccccc2O[C@@H](c2ccc([N+](=O)[O-])cc2)[C@@H]1O | > 11.6 µM | pIC50 (PBLUC_HILL_SLOPE 15.1, PBLUC_R_SQUARED 0.277, read-out: LUCIFERASE INFECTION ASSAY - IC50): 4.97
10 | COc1ccc(-c2nc(NC(=O)CCc3ccc4c(c3)OCO4)sc2C)cc1 | > 10 µM | pIC50 (PBLUC_HILL_SLOPE 15.2, PBLUC_R_SQUARED 0.468, read-out: LUCIFERASE INFECTION ASSAY - IC50): 5.05
11 | CCN1C(=O)N(Cc2cccc(OC)c2)C(=O)C12CCN(CC(c1ccccc1)c1ccccc1)CC2 | > 6.63 µM | pIC50 (PBLUC_HILL_SLOPE 15.1, PBLUC_R_SQUARED 0.228, read-out: LUCIFERASE INFECTION ASSAY - IC50): 5.21
12 | O=C(NCc1ccccn1)c1nn(CCc2ccccc2)c2c1CN(Cc1ccc(F)cc1)CC2 | > 7.03 µM | pIC50 (PBLUC_HILL_SLOPE 15.1, PBLUC_R_SQUARED 0.777, read-out: LUCIFERASE INFECTION ASSAY - IC50): 5.19
13 | CN(C)CCCOc1ccc(-c2nnc3ccc(-c4cccc(Oc5ccccc5)c4)cn23)cc1 | > 10 µM | pIC50 (PBLUC_HILL_SLOPE 15.3, PBLUC_R_SQUARED 0.363, read-out: LUCIFERASE INFECTION ASSAY - IC50): 5.03
14 | O=C(Nc1nc(-c2ccccn2)cs1)c1ccc(=O)n(Cc2ccccc2)n1 | 9.95 µM | pIC50 (PBLUC_HILL_SLOPE 15.2, PBLUC_R_SQUARED 0.0748, read-out: LUCIFERASE INFECTION ASSAY - IC50): 5.06
15 | COc1ccc(C(=O)C2CCN(C(=O)C3CC(=O)N(c4ccc(C)c(F)c4)C3)CC2)cc1 (stereo unspecified) | > 10 µM | pIC50 (PBLUC_HILL_SLOPE 15.1, PBLUC_R_SQUARED 0.128, read-out: LUCIFERASE INFECTION ASSAY - IC50): 5.00
16 | Cc1noc(C)c1-c1nccc2n[nH]c(-c3ccccc3)c12 | > 10 µM | pIC50 (PBLUC_HILL_SLOPE 15.1, PBLUC_R_SQUARED 0.272, read-out: LUCIFERASE INFECTION ASSAY - IC50): 5.03
17 | Cc1ccc(C)c(N2C(=O)C=CC2=O)c1 | > 16.4 µM | pIC50 (PBLUC_HILL_SLOPE 15.1, PBLUC_R_SQUARED 0.421, read-out: LUCIFERASE INFECTION ASSAY - IC50): 4.83

Row | Structure (SMILES) | IC90 | further results
18 | COc1ccc(C(N)c2csc(NC(=O)Nc3cccc(C#N)c3)n2)cc1 (stereo unspecified) | 3.43 µM | pIC50 (PBLUC_HILL_SLOPE 15.3, PBLUC_R_SQUARED 0.483, read-out: LUCIFERASE INFECTION ASSAY - IC50): 5.53
19 | CCNC(=O)c1nn(Cc2ccccc2)c2c1CC(NCc1ccc(Cl)s1)CC2 (stereo unspecified) | > 7.69 µM | pIC50 (PBLUC_HILL_SLOPE 15.3, PBLUC_R_SQUARED 0.172, read-out: LUCIFERASE INFECTION ASSAY - IC50): 5.12
20 | CCc1ccc(CN(Cc2cccnc2)C(=O)c2ccc3ccccc3n2)cc1 | 4.26 µM | pIC50 (PBLUC_HILL_SLOPE 15.3, PBLUC_R_SQUARED 0.276, read-out: LUCIFERASE INFECTION ASSAY - IC50): 5.43
21 | COc1ccc2[nH]cc(C(=O)CN3CCC(Cc4ccccc4)CC3)c2c1 | > 9.1 µM | pIC50 (PBLUC_HILL_SLOPE 15.2, PBLUC_R_SQUARED 0.148, read-out: LUCIFERASE INFECTION ASSAY - IC50): 5.07
22 | CC(C)(C)C(=O)c1sc2c(c1N)c(=O)[nH]c(=O)n2C1CCCCC1 | 3.47 µM | pIC50 (PBLUC_HILL_SLOPE 15.3, PBLUC_R_SQUARED 0.0878, read-out: LUCIFERASE INFECTION ASSAY - IC50): 5.52
23 | COc1ccc(CCC2CCN(C(=O)c3cc(S(N)(=O)=O)c(Cl)cc3Cl)CC2)cc1 | > 10 µM | pIC50 (PBLUC_HILL_SLOPE 15.3, 12.1, PBLUC_R_SQUARED 0.180, 0.0239, read-out: LUCIFERASE INFECTION ASSAY - IC50): 5.02
24 | CN(Cc1ccc(Cl)cc1Cl)C(=O)NCc1ccc(S(=O)(=O)N2CCCCC2)cc1 | > 10 µM | pIC50 (PBLUC_HILL_SLOPE 15.3, PBLUC_R_SQUARED 0.472, read-out: LUCIFERASE INFECTION ASSAY - IC50): 5.03
25 | CN(C)CCCOc1ccc(-c2cn3c(-c4cccc(OC(F)(F)F)c4)cnc3cn2)cn1 | > 7.21 µM | pIC50 (PBLUC_HILL_SLOPE 15.4, PBLUC_R_SQUARED 0.0337, read-out: LUCIFERASE INFECTION ASSAY - IC50): 5.16
26 | Fc1ccc(CNc2ccc(-c3nc4ccccc4[nH]3)cc2)cc1 | > 10.4 µM | pIC50 (PBLUC_HILL_SLOPE 15.3, PBLUC_R_SQUARED 0.322, read-out: LUCIFERASE INFECTION ASSAY - IC50): 5.04
27 | CCOC(=O)c1c[nH]c2c(C)cc(Cl)cc2c1=O | > 12.4 µM | pIC50 (PBLUC_HILL_SLOPE 15.3, PBLUC_R_SQUARED 0.364, read-out: LUCIFERASE INFECTION ASSAY - IC50): 4.95
28 | CCN(Cc1ccccc1)S(=O)(=O)c1cc(C(=O)N2CCc3ccccc3C2)ccc1OC | > 10 µM | pIC50 (PBLUC_HILL_SLOPE 15.3, PBLUC_R_SQUARED 0.425, read-out: LUCIFERASE INFECTION ASSAY - IC50): 5.01
29 | CN1CCN(/N=C/c2c(-c3ccccc3)n(-c3ccccc3)c3ccccc23)CC1 | > 10 µM | pIC50 (PBLUC_HILL_SLOPE 15.1, PBLUC_R_SQUARED 0.218, read-out: LUCIFERASE INFECTION ASSAY - IC50): 5.04
30 | CS(=O)(=O)Nc1ccc(-c2csc(NC(=O)c3ccc(CN4CCCCC4)cc3)n2)cc1 | > 10 µM | pIC50 (PBLUC_HILL_SLOPE 15.3, PBLUC_R_SQUARED 0.202, read-out: LUCIFERASE INFECTION ASSAY - IC50): 5.04
31 | Cc1ccc(C(=O)Nc2nc3ccccn3c2C(=O)NC(C)C)cc1 | > 9.81 µM | pIC50 (PBLUC_HILL_SLOPE 15.2, PBLUC_R_SQUARED 0.478, read-out: LUCIFERASE INFECTION ASSAY - IC50): 5.07
32 | CNc1nc2cnc(-c3cccc(OC(F)(F)F)c3)cc2n1-c1cccc(F)c1 | > 10 µM | pIC50 (PBLUC_HILL_SLOPE 15.2, PBLUC_R_SQUARED 0.218, read-out: LUCIFERASE INFECTION ASSAY - IC50): 5.05
33 | CC(C)(C)c1cc2nc(C(F)(F)F)cc(N/N=C/c3ccccc3)n2n1 | > 9.13 µM | pIC50 (PBLUC_HILL_SLOPE 15.2, PBLUC_R_SQUARED 0.244, read-out: LUCIFERASE INFECTION ASSAY - IC50): 5.08
